Experimental data taken from ChEMBL document CHEMBL1909046, “DrugMatrix in vitro pharmacology data”.

Assays:
[1] = DRUGMATRIX: Phorbol Ester radioligand binding (ligand: [3H] PDBu); assay type: cell membranes, Mus musculus, ICR, Brain, Membrane; conditions: Not Active = under 50% inhibition at 10 µM
[2] = target: T1, Amine oxidase [flavin-containing] A (Homo sapiens, UniProt P21397); experiment: DRUGMATRIX: Monoamine Oxidase MAO-A enzyme inhibition (substrate: Kynuramine); parameters: species or system BTI-TN-5B1-4; conditions: bti-tn-5b1-4; Not Active = under 50% inhibition at 10 µM
T1 sequence (P21397 whole entry): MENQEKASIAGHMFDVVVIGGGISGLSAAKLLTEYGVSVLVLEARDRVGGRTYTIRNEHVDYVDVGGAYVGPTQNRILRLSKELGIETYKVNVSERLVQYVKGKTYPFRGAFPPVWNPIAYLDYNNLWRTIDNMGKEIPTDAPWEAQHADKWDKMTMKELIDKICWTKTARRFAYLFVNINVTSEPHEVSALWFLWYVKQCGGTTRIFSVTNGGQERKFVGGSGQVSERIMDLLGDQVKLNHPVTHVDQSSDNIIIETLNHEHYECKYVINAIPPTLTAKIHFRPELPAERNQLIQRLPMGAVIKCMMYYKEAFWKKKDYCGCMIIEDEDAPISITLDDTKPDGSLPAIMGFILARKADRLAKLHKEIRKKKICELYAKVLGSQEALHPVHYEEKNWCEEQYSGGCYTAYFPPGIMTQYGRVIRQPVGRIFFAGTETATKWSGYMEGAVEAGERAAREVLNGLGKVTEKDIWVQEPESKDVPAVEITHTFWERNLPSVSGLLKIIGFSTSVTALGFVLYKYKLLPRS

CC(C)(C#N)c1cc(Cn2cncn2)cc(C(C)(C)C#N)c1 [ANASTROZOLE]
Not Active: IC50 [1] | Ki [1] | IC50 [2]

CC12CCC(CC1=O)C2(C)C (stereo unspecified) [CAMPHOR]
Not Active: IC50 [1] | Ki [1] | IC50 [2]

CC12CCC(CC1)C(C)(C)O2 [EUCALYPTOL]
Not Active: IC50 [1] | Ki [1] | IC50 [2]

Cc1ccnc2c1NC(=O)c1cccnc1N2C1CC1 [NEVIRAPINE]
Not Active: IC50 [1] | Ki [1] | IC50 [2]

Clc1cc(Cl)c(OCC#CI)cc1Cl [HALOPROGIN]
Not Active: IC50 [1] | Ki [1] | IC50 [2]

Oc1ccccc1 [PHENOL]
Not Active: IC50 [1] | Ki [1] | IC50 [2]

COc1cc(NC(C)CCCN)c2ncccc2c1 (stereo unspecified) [PRIMAQUINE]
Not Active: IC50 [1] | Ki [1] | IC50 [2]

O=c1[nH]cnc2c1ncn2[C@H]1CC[C@@H](CO)O1 [DIDANOSINE]
Not Active: IC50 [1] | Ki [1] | IC50 [2]

COC(=O)Nc1nc2ccc(Sc3ccccc3)cc2[nH]1 [FENBENDAZOLE]
Not Active: IC50 [1] | Ki [1] | IC50 [2]

O=C(O)CCc1nc(-c2ccccc2)c(-c2ccccc2)o1 [OXAPROZIN]
Not Active: IC50 [1] | Ki [1] | IC50 [2]

NCC(CC(=O)O)c1ccc(Cl)cc1 (stereo unspecified) [BACLOFEN]
Not Active: IC50 [1] | Ki [1] | IC50 [2]

CC[C@H]1OC(=O)[C@H](C)[C@@H](O[C@H]2C[C@@](C)(OC)[C@@H](O)[C@H](C)O2)[C@H](C)[C@@H](O[C@@H]2O[C@H](C)C[C@H](N(C)C)[C@H]2O)[C@](C)(O)C[C@@H](C)C(=O)[C@H](C)[C@@H](O)[C@]1(C)O [ERYTHROMYCIN]
Not Active: IC50 [1] | Ki [1] | IC50 [2]

C=CCO [ALLYL ALCOHOL]
Not Active: IC50 [1] | Ki [1] | IC50 [2]

C#C[C@]1(O)CC[C@H]2[C@@H]3CCC4=CC(=O)CC[C@@H]4[C@H]3CC[C@@]21C [NORETHINDRONE]
Not Active: IC50 [1] | Ki [1] | IC50 [2]

O=C1CN(/N=C/c2ccc([N+](=O)[O-])o2)C(=O)N1 [NITROFURANTOIN]
Not Active: IC50 [1] | Ki [1] | IC50 [2]

CC(CN1c2ccccc2Sc2ccccc21)N(C)C (stereo unspecified) [PROMETHAZINE]
Not Active: IC50 [1] | Ki [1] | IC50 [2]

CCN1C[C@]2(COC)[C@H](O)C[C@H](OC)[C@@]34[C@@H]5C[C@@]6(O)[C@H](OC(=O)c7ccccc7)[C@@H]5[C@@](OC(C)=O)([C@@H]([C@H](OC)[C@H]23)[C@@H]14)[C@@H](O)[C@@H]6OC [ACONITINE]
Not Active: IC50 [1] | Ki [1] | IC50 [2]

CO[C@H]1O[C@@H]2O[C@@]3(C)CC[C@H]4[C@H](C)CC[C@@H]([C@H]1C)[C@@]24OO3
Not Active: IC50 [1] | Ki [1] | IC50 [2]

C[C@@H]1[C@H](O)[C@@H](C)/C=C/C=C/C=C/C=C/C=C/C=C/C=C/[C@H](O[C@@H]2O[C@H](C)[C@@H](O)[C@H](N)[C@@H]2O)C[C@@H]2O[C@](O)(C[C@@H](O)C[C@@H](O)[C@H](O)CC[C@@H](O)C[C@@H](O)CC(=O)O[C@H]1C)C[C@H](O)[C@H]2C(=O)O [AMPHOTERICIN B]
Not Active: IC50 [1] | Ki [1] | IC50 [2]

Oc1ncnc2[nH]ncc12 [ALLOPURINOL]
Not Active: IC50 [1] | Ki [1] | IC50 [2]

NC(=O)CN1CCCC1=O
Not Active: IC50 [1] | Ki [1] | IC50 [2]

Cc1c(N)nc([C@H](CC(N)=O)NC[C@H](N)C(N)=O)nc1C(=O)N[C@H](C(=O)N[C@H](C)[C@@H](O)[C@H](C)C(=O)N[C@H](C(=O)NCCc1nc(-c2nc(C(=O)NCCC[S+](C)C)cs2)cs1)[C@@H](C)O)[C@@H](O[C@@H]1O[C@@H](CO)[C@@H](O)[C@H](O)[C@@H]1O[C@H]1O[C@H](CO)[C@@H](O)[C@H](OC(N)=O)[C@@H]1O)c1c[nH]cn1.[Br-] [BLEOMYCIN A2]
Not Active: IC50 [1] | Ki [1] | IC50 [2]
